Results published in article PMC5963591, “Bitopic Binding Mode of an M1 Muscarinic Acetylcholine Receptor Agonist Associated with Adverse Clinical Trial Outcomes” (Molecular Pharmacology, 2018).

Assays:
M1 DREADD = biological target: T1, M1 DREADD (Homo sapiens, UniProt P11229, A196G/Y106C); assay: Receptor phosphorylation at serine 228, M1 DREADD, CHO Flp-In cells; format: cell-based; details: compared with wild type
T1 construct: HA; expressed in transfected cells; host or cells: CHO Flp-In

human mAChR M1 = biological target: T2, human mAChR M1 (Homo sapiens, UniProt P11229); assay: [3H]-NMS competition binding, CHO membranes, M1
T2 construct: purchased PerkinElmer; host or cells: CHO
Procedure: (§1) For competition binding experiments at M1, M2, M3, M4, and M5 mAChRs, CHO membranes were purchased from PerkinElmer. All experiments were performed in assay buffer of the following composition: 20 mM HEPES, 100 mM NaCl, and 10 mM MgCl2, pH 7.5, and used 10 µg protein/well in a total assay volume of 1 ml using deep well blocks. […] All assay incubations were initiated by the addition of membrane suspensions and deep well blocks were shaken for 5 minutes to ensure complete mixing. Incubation was then carried out for 2 hours at 21°C. Binding reactions were terminated by rapid filtration through GF/A filters (PerkinElmer) presoaked with 0.5% (w/v) polyethylenimine for 1 hour. Filters were then washed three times with 1 ml ice-cold assay buffer.
(§2) Inhibition binding data were curve-fit using GraphPad Prism 6 to derive the potency (IC50) of the test compound. The equilibrium dissociation constant (KI) of the test compound was then calculated with the Cheng–Prusoff equation: KI = IC50/[1 + ([L]/KD)] using the KD value derived separately from saturation binding studies.

human mAChR M2 = biological target: T3, human mAChR M2 (Homo sapiens, UniProt P08172); assay: [3H]-NMS competition binding, CHO membranes, M2
T3 construct: purchased PerkinElmer; host or cells: CHO
T3 sequence (P08172 whole entry): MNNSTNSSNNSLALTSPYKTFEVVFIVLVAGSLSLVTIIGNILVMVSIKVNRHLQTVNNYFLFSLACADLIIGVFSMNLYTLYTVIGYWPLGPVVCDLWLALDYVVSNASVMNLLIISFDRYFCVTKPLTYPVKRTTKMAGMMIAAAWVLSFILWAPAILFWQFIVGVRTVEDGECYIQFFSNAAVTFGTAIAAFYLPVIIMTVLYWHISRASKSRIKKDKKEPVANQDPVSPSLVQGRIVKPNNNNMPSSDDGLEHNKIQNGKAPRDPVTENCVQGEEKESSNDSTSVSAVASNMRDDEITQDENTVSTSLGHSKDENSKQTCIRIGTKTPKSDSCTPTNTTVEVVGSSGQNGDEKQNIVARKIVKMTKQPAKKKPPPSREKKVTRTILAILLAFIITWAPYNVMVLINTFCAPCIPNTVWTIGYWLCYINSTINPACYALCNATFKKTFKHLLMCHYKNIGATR
Procedure: as §1, §2

human mAChR M4 = biological target: T4, human mAChR M4 (Homo sapiens, UniProt P08173); assay: [3H]-NMS competition binding, CHO membranes, M4
T4 construct: purchased PerkinElmer; host or cells: CHO
T4 sequence (P08173 whole entry): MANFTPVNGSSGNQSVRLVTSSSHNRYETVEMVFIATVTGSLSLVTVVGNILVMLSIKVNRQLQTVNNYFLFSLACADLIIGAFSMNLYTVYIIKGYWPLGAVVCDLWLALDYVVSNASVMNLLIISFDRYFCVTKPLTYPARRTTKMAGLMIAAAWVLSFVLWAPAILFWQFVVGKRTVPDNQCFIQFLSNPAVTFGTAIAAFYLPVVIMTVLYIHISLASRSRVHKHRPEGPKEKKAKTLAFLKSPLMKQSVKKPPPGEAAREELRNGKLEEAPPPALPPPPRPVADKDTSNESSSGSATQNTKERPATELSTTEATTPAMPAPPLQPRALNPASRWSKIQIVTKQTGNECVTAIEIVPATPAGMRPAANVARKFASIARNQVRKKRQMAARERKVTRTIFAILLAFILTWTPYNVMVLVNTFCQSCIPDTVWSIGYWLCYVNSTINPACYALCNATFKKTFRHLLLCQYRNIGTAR
Procedure: as §1, §2

M5 mAChR = biological target: T5, M5 mAChR (Homo sapiens, UniProt P08912); assay: ERK1/2 phosphorylation, CHO cells, M5; format: cell-based
T5 construct: expressed in transfected cells; host or cells: CHO
T5 sequence (P08912 whole entry): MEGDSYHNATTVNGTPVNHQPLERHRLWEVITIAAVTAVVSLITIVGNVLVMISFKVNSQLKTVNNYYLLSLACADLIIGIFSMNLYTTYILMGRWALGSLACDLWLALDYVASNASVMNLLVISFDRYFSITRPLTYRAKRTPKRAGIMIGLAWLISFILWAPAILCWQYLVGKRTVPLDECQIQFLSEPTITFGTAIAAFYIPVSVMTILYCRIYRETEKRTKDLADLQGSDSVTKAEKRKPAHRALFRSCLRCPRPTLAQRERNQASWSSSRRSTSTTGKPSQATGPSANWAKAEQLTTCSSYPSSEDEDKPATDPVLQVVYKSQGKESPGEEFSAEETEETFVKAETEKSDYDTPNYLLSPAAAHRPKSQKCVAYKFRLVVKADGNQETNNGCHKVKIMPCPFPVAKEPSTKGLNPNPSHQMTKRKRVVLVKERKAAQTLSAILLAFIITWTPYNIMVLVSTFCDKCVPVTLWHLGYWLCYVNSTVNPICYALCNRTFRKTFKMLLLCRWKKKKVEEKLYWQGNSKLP

[1] = biological target: T6, M2 mAChR (isolated rat atria) (Rattus norvegicus, UniProt P10980); assay: Isolated rat atria, negative inotropic response; details: single experiment
T6 construct: from tissue; host or cells: left atria of adult Wistar rats
T6 sequence (P10980 1-466): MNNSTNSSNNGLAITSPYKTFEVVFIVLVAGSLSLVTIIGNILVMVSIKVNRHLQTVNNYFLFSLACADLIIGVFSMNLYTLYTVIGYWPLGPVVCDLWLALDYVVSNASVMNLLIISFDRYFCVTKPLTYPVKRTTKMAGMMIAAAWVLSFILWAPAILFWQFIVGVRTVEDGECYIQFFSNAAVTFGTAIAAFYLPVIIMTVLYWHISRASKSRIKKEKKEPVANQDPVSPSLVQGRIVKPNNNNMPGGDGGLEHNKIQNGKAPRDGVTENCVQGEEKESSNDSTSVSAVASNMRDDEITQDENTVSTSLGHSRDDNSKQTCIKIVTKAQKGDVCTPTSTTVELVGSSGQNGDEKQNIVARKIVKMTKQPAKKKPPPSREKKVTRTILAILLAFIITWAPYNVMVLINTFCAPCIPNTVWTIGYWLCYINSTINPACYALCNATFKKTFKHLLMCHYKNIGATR
Procedure: Adult Wistar rats were humanely euthanized and the left atria and the ileum were placed in an organ bath containing oxygenated Tyrode solution. Measurement of negative inotropic responses in atria or contraction of ileum was performed as described by [Lambrecht et al. (1989)]. For atrial responses, ligands were administered for 5 minutes at 32°C in McEwen’s buffer (pH 7.4) in a bath volume of 10 ml. […] For rat ileum experiments, ligands were administered for 5 minutes at 32°C in Krebs’ buffer (pH 7.4) in a bath volume of 10 ml. Contraction of ileum as a percentage of methacholine-induced contraction was measured, and antagonistic effects were measured by inhibition of methacholine-induced responses.

C57Bl/6J mice = assay: Contextual fear conditioning, scopolamine-induced deficit; format: in vivo, mouse; details: escalating i.p. doses with scopolamine […]
Procedure: C57Bl/6J male mice (aged 8–12 weeks) were acclimatized to the behavioral testing suite at least 2 hours prior to the test. […] Mice were placed in the conditioning chamber (ANY-maze Fear Conditioning System; Stoelting, Dublin, Ireland); after a 2-minute adaptation period, they received three tone/foot shock pairings where the foot shock (unconditioned stimulus; 2 seconds; 0.4 mA) always co-terminated with a tone (conditioned stimulus; 2.8 kH; 85 dB; 30 seconds). The conditioned stimulus–unconditioned stimulus pairings were separated by 1-minute intervals. After the mice completed training, they remained in the conditioning chamber for 1 minute and were then returned to their home cages. The next day, the mice were placed back in the conditioning chamber, and time spent immobile was recorded for 3 minutes to assess context-dependent learning. Data were analyzed using ANY-maze software (Stoelting).

human M1 mAChR = biological target: T7, human M1 mAChR (Homo sapiens, UniProt P11229); assay: IP1 accumulation after receptor alkylation with phenoxybenzamine (functional interaction with ACh)
T7 sequence (P11229 1-460): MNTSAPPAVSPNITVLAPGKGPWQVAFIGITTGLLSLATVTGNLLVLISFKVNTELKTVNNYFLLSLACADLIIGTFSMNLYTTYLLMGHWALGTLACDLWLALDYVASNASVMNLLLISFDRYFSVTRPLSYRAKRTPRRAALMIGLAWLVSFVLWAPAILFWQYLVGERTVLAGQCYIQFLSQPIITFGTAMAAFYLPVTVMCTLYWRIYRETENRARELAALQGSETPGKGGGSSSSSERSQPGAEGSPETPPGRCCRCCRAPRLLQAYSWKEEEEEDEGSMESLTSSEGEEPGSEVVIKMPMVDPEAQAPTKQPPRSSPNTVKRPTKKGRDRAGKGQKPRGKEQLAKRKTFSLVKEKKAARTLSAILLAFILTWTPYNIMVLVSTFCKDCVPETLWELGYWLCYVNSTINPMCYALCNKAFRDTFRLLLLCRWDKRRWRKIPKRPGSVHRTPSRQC

T1 sequence (P11229 whole entry Y106C/A196G): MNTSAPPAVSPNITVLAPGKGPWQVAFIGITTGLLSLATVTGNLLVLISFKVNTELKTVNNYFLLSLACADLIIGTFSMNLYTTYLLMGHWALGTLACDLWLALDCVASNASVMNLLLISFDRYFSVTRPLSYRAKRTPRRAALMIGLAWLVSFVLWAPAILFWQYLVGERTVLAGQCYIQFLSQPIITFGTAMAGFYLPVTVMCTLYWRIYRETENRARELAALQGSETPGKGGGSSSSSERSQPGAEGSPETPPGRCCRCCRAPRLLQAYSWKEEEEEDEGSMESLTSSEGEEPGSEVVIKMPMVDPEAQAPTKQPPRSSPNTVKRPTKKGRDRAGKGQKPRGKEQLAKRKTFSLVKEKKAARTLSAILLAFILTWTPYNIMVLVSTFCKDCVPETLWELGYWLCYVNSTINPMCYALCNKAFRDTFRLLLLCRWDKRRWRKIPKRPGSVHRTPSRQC

Compound: Cc1cc(F)c2[nH]c(=O)n(C3CCN(C4CCOCC4)CC3)c2c1 [GSK1034702, 7-fluoro-5-methyl-3-[1-(oxan-4-yl)piperidin-4-yl]-1H-benzimidazol-2-one]
- phosphorylation at serine 228 (M1 DREADD): unchanged
- Ki (human mAChR M1): 1000 nM
- Ki (human mAChR M2): 3980 nM
- Ki (human mAChR M4): 2000 nM
- functional activity in ERK1/2 phosphorylation (M5 mAChR): partial agonist activity
- IC50 ([1]; methacholine 1 μM, read-out: IC50, inhibition of methacholine-induced responses in rat atria): 8000 nM
- maximal negative inotropic response in rat atria ([1]; relative to methacholine): maximal response equivalent to that of methacholine
- potency, negative inotropic response in rat atria [1]: micromolar potency
- shape of the dose response on learning and memory (C57Bl/6J mice): bell shaped
- Kb (human M1 mAChR): 631 nM
- agonist effect in IP1 accumulation after phenoxybenzamine (human M1 mAChR; cells treated with 3 μM phenoxybenzamine): no agonist effect
